Reference: patent publication US20240335569A1, “FIBROBLAST ACTIVATION PROTEIN INHIBITORS AND USE THEREOF” (3 B PHARMACEUTICALS GMBH, priority 2021, published 2024)
Like-named read-outs stand apart in the source and are kept apart here.

What was measured:
[1] = molecular target: HEK-FAP cells (HEK293 cells engineered to express the human FAP) (Homo sapiens (Human), UniProt Q12884); test: LigandTracer assay with 111In-labeled compounds; assay type: binding; details: 111In-labeled compound
Protocol: HEK293 cells (human embryonic kidney cells) were engineered to express the human FAP. […] Cell concentrations were adjusted to 3×10^5 mL^−1, and 3.000 μL of the suspension was dispensed into a poly-lysine-coated, clear cell dish (10 cm). Approximately 24 hours after re-seeding, the medium was replaced by assay medium (Ham's medium with 20 mM HEPES) containing 1% FCS. The dish was placed in the LigandTracer® device and a baseline measurement was obtained using the LigandTracer® Control software (version 2.4). […] To determine the dissociation rate (kd) the cells were washed and subsequently incubated with fresh assay medium for several hours.

Human recombinant FAP [2] = molecular target: T1, Human recombinant FAP (Homo sapiens (Human), UniProt Q12884); test: Surface plasmon resonance assay (Biacore T200, SCK); assay type: binding; details: for HL [min] (Biacore): SPR dissociation half-life
Method in brief: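 Anti-FAP antibody amine-coupled to CM5 chip (7000 RU), human recombinant FAP captured at 20 μg/mL; compounds run in single-cycle kinetics at 25° C in HBST with 0.1% DMSO, top concentration 500 nM. Reference-cell and buffer-run drift subtraction; kon, koff, KD, t1/2 from 1:1 Langmuir fit, reported as pKD.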
Target sequence in this assay (Q12884 whole entry): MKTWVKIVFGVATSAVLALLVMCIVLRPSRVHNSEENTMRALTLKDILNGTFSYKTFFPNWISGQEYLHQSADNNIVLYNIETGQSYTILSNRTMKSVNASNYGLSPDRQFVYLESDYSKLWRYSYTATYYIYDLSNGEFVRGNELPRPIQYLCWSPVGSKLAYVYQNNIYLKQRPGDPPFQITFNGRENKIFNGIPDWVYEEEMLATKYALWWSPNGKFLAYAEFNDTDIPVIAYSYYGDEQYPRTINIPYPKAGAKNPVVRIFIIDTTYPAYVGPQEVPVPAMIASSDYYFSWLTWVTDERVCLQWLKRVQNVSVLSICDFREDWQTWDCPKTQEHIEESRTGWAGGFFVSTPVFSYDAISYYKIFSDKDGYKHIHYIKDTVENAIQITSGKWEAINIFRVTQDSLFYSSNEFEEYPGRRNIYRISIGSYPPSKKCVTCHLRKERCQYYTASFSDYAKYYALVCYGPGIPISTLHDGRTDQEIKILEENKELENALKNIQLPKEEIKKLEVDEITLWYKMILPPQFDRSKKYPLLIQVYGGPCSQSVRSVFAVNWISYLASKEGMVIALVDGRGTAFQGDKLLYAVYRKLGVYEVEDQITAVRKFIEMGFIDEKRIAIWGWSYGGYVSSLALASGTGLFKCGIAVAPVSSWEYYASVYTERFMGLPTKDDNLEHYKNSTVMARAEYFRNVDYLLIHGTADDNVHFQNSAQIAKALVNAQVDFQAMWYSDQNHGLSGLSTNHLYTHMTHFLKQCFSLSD

HT-29 cells = test: Stability in the presence of tumor cells (HT-29), FAP IC50 of supernatants; assay type: in vitro ADME, human; details: for pIC50 (incubation in cell medium w/o HT-29) / pIC50 (incubation in the presence of HT-29 cells) / IC50: 10 μM compound, supernatant tested on recombinant human FAP
Protocol: The stability of exemplary compounds was further assessed in the presence of a variety of human cell lines from different tissue origins. […] Compounds were diluted in DMEM without phenol red (Biochrom, #F0475) including 2 mM L-glutamine. 400 μL of a 10 μM solution of the test compound was incubated for 24 hours at 37° C. and 5% CO2 in the presence of cells as well as in control wells (without cells) of the same 24-well plate. IC50/pIC50 determination of the supernatants was performed as described above.

WM-266-4 = test: Stability in the presence of human cell lines (WM-266-4); assay type: in vitro ADME; details: WM-266-4, Skin; 24 hours
Protocol: (§1) Residual activity was calculated as follows: […]

AsPC-1 = test: Stability in the presence of human cell lines (AsPC-1); assay type: in vitro ADME; details: AsPC-1, Pancreas; 24 hours
Protocol: as §1

SCOV-3 = details: SCOV-3, Ovarian; 24 hours
Protocol: Cells were cultured in McCoys's 5A modified medium (Biochrom, #F1015) including 10% fetal bovine serum (FBS), 2 mM L-glutamine, 100 U/ml penicillin and 100 μg/mL streptomycin (growth medium). […] 1 mL of the cell suspension were seeded in 24-well plates and incubated overnight at 37° C. and 5% CO2. The next day, cells were washed twice and growth medium was exchanged against DMEM without phenol red (Biochrom, #F0475) including 2 mM L-glutamine. Test compound was diluted in DMEM without phenol red (Biochrom, #F0475) including 2 mM L-glutamine. 400 μL of a 10 μM solution of the test compound was incubated for 24 hours at 37° C. and 5% CO2 in the presence of cells as well as in control wells (without cells) of the same 24-well plate.
25 μL of a 30 μM substrate solution, diluted in assay buffer, was added. All solutions were equilibrated at 37° C. prior to use. […] RFU/sec was calculated by SoftMax Pro software and plotted against test compound concentration. Four parameter logistic (4PL) curve fitting and IC50/pIC50 calculations were performed using GraphPad Prism 9.1 software. Residual activity was calculated as follows: […]
The stability of exemplary compounds was further assessed in the presence of a variety of human cell lines from different tissue origins. […] Residual activity was calculated as follows: […]

786-O = test: Stability in the presence of human cell lines (786-O); assay type: in vitro ADME; details: Kidney, 24 hours
Protocol: as §1

U87MG = test: Stability in the presence of human cell lines (U87MG); assay type: in vitro ADME; details: Brain, 24 hours
Protocol: as §1

WI-38 = test: Stability in the presence of human cell lines (WI-38); assay type: in vitro ADME; details: WI-38, Fibroblast (Lung); 24 hours
Protocol: as §1

U2-OS = test: Stability in the presence of human cell lines (U2-OS); assay type: in vitro ADME; details: Sarcoma (Bone), 24 hours
Protocol: as §1

C4-2 = test: Stability in the presence of human cell lines (C4-2); assay type: in vitro ADME; details: C4-2, Prostate; 24 hours
Protocol: as §1

MDA-MB-436 = test: Stability in the presence of human cell lines (MDA-MB-436); assay type: in vitro ADME; details: MDA-MB-436, Breast; 24 hours
Protocol: as §1

K-562 = test: Stability in the presence of human cell lines (K-562); assay type: in vitro ADME; details: K-562, Blood; 24 hours
Protocol: as §1

A549 = test: Stability in the presence of human cell lines (A549); assay type: in vitro ADME; details: A549, Lung; 24 hours
Protocol: as §1

HT-1376 = test: Stability in the presence of human cell lines (HT-1376); assay type: in vitro ADME; details: HT-1376, Bladder; 24 hours
Protocol: as §1

HEC-265 = test: Stability in the presence of human cell lines (HEC-265); assay type: in vitro ADME; details: HEC-265, Endometrium; 24 hours
Protocol: as §1

Human recombinant FAP [3] = molecular target: T1, Human recombinant FAP; test: FAP protease activity assay (human), FRET-based; assay type: biochemical; details: recombinant human FAP, FRET protease activity; read-out: pIC50 (Activity) (converted)
Protocol: In order to determine the inhibitory activity a FRET-based FAP protease activity assay was established.
Four parameter logistic (4PL) curve fitting and pIC50 calculations were performed using ActivityBase software (IDBS).
Target sequence in this assay (Q12884 26-760): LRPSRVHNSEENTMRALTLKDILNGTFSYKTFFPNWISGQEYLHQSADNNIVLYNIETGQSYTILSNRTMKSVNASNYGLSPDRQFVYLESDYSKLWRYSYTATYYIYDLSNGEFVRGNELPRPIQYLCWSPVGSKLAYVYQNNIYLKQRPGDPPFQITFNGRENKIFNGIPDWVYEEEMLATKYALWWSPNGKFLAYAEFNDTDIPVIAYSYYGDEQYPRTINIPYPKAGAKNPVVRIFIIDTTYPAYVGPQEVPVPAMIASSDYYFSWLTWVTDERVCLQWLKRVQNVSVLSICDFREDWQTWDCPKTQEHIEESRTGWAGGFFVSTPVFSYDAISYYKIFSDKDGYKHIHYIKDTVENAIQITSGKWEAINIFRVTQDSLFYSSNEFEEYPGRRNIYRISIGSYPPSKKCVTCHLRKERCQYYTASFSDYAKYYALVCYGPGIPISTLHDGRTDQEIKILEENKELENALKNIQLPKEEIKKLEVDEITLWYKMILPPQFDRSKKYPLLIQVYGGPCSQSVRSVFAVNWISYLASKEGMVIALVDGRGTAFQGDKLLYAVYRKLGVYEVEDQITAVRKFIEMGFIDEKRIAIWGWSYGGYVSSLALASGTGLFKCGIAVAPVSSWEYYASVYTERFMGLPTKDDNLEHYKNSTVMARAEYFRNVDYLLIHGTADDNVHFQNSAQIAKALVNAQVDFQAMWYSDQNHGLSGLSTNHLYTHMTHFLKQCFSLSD

[4] = molecular target: FAP-expressing human WI-38 fibroblasts (Homo sapiens (Human), UniProt Q12884); test: FACS binding assay (competitive, Cy5-labeled 3BP-2935); details: FAP-expressing WI-38 fibroblasts
FAP-expressing human WI-38 fibroblasts, sequence (Q12884 whole entry): as the sequence (Q12884 whole entry) above
Method in brief: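 Cells diluted to 100.000 cells per ml in FACS buffer, washed twice and analysed by flow cytometry. Median Cy5 fluorescence was plotted against test compound concentration, and pIC50 was derived by four-parameter logistic fit.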

[5] = 24 hours at 37° C. in control wells without cells
[6] = 24 hours at 37° C. with HT-29 cells

Structure (SMILES): O=C(O)CN1CCN(CC(=O)O)CCN(CC(=O)N2CCN(CCCOc3ccc4nccc(C(=O)NCC(=O)N5CCC[C@H]5C(=O)c5nc6ccccc6o5)c4c3)CC2)CCN(CC(=O)O)CC1 [Compound 3BP-4808]
- HL (half-life) [1]: 0.333 ± 0.083 h
- pKD (Biacore) (Human recombinant FAP [2]; SPR): >10.5
- HL [min] (Biacore) (Human recombinant FAP [2]): >150 min
- pIC50 (incubation in cell medium w/o HT-29) (HT-29 cells; [5]): 8.6
- pIC50 (incubation in the presence of HT-29 cells) (HT-29 cells; [6]): 8.6
- Residual activity after incubation with HT-29 cells for 24 hours (%) (HT-29 cells; HT-29 cells, 24 hours): >95%

Structure (SMILES): N#C[C@@H]1CC(F)(F)CN1C(=O)CNC(=O)c1ccnc2ccc(OCCCN3CCN(C(=O)CN4CCN(CC(=O)O)CCN(CC(=O)O)CCN(CC(=O)O)CC4)CC3)cc12 [Compound 3BP-2929, reference compound]
- Residual Stability (%) (WM-266-4): 70%
- Residual Stability (%) (AsPC-1): 35%
- HL (half-life) [1]: 4.6 ± 2.37 h
- Residual Stability (%) (SCOV-3): 4%
- HL [min] (Biacore) (Human recombinant FAP [2]): 85 min
- Residual Stability (%) (786-O): 85%
- Residual Stability (%) (U87MG): 45%
- Residual Stability (%) (WI-38): 26%
- Residual Stability (%) (U2-OS): 30%
- pIC50 (incubation in cell medium w/o HT-29) (HT-29 cells; [5]): 8.7
- pIC50 (incubation in the presence of HT-29 cells) (HT-29 cells; [6]): 7.9
- Residual Stability (%) (HT-29 cells; HT-29, Intestine, 24 hours): 14%
- stability in the presence of HT-29 cells (in words) (HT-29 cells; HT-29 cells): unstable
- Residual activity after incubation with HT-29 cells for 24 hours (%) (HT-29 cells; HT-29 cells, 24 hours): 16%
- Residual Stability (%) (C4-2): 19%
- Residual Stability (%) (MDA-MB-436): 17%
- Residual Stability (%) (K-562): 70%
- Residual Stability (%) (A549): 20%
- Residual Stability (%) (HT-1376): 10%
- Residual Stability (%) (HEC-265): 65%

Structure (SMILES): O=C(O)CN1CCN(CC(=O)O)CCN(CC(=O)NCCCS(=O)(=O)c2ccc(-c3ccc4nccc(C(=O)NCC(=O)N5CCC[C@H]5C(=O)c5nc6ccccc6o5)c4c3)cc2)CCN(CC(=O)O)CC1 [Compound 3BP-3581, (S)-2,2′,2″-(10-(2-(3-(4-(4-(2-(2-(benzo[d]oxazole-2-carbonyl)pyrrolidin-1-yl)-2-oxoethylcarbamoyl)quinolin-6-yl)phenylsulfonyl)propylamino)-2-oxoethyl)-1,4,7,10-tetraazacyclododecane-1,4,7-triyl)triacetic Acid]
- HL (half-life) [1]: 5.75 ± 3.63 h
- Kd [1]: 0.0794 nM
- HL [min] (Biacore) (Human recombinant FAP [2]): 120 min
- Kd (Human recombinant FAP [2]; SPR, read-out: pKD (Biacore) (converted)): < 0.0316 nM
- IC50 (Human recombinant FAP [3]): 1.26 nM
- IC50 [4]: 1.58 nM
- IC50 (HT-29 cells; 24 hours at 37° C. with HT-29 cells, read-out: pIC50 (incubation in the presence of HT-29 cells) (converted)): 2 nM
- IC50 (HT-29 cells; HT-29, 24 hours at 37° C. in control wells without cells, read-out: pIC50 (incubation in cell medium w/o HT-29) (converted)): 2 nM
- Residual activity after incubation with HT-29 cells for 24 hours (%) (HT-29 cells; HT-29 cells, 24 hours): >95%
